Consider 32 molecules from patent US8946431B2, “2-(substituted ethynyl)quinoline derivatives as mGLUr5 antagonists” (Korea Institute of Science and Technology, priority 2013, dated 2015).

SMILES strings stand for the structures.

This assay has as its target T1, mGluR5 (Homo sapiens, UniProt P41594).
T1 construct: host or cells: HEK293 (human embryonic kidney) cells stably expressing m-GluR5
Briefly: Assay for m-GluR5 activity using FDSS6000 (calcium mobilization by L-glutamate in mGluR5/HEK293 cells). In kind it is cell-based. Particulars: L-glutamate 10 uM, HEK cells expressing m-GluR5; for inhibition at 1 µM / inhibition at 10 µM: HEK293, read-out: % Inhibition rate (mGluR5). The procedure: Inhibitory activity (%) of the compound represented by Formula 1 on calcium mobilization developed at a high concentration of glutamate in mGluR5/HEK293 cells was measured by using a high throughput FDSS6000.
After HEK cells stably expressing m-GluR5 (Human embryonic kidney cell line; m-GluR5: Yonsei University) were prepared at a density of 4×10^4/Ml per well, aliquots of 100 μl from the cell suspension were distributed evenly into a 96-well plate and incubated for 18 hr at 37° C., 5% CO2. The well plate was washed with a HBSS buffer to remove the culture medium, and reacted with a HBSS buffer containing a Ca^2+ fluorescent dye (FLIPR Calcium 5 assay kit: Molecular Devices) for 30 min at 37° C., 5% CO2, thereby labeling with the fluorescent dye. Separately from the 96-well plate including the cells, another 96-well plate including L-glutamate (final concentration: 10 uM) capable of activating m-GluR5 and a blacking agent was prepared. Since most of cell-based HTS devices are equipped with a liquid application system for injection of a drug, but have no liquid sucking system, the blocking agent to be tested and L-glutamate were respectively provided at a 6-fold higher concentration in a HBSS buffer at the amount of 25 μl, diluted by six-times at the final cell plate volume of 150 μl, and then used in this assay. Briefly, the FDSS6000 assay was carried out by recording a reference level of 20 sec, pre-treating with a blocking agent for 75 sec, and then measuring the change in intracellular calcium level depending on the administration of L-glutamate. After the area of a 480/520 ratio value in a control without treatment of a test drug was set to 100%, an inhibitory effect of the test drug was calculated as a percentage (%) thereon.
For accurate calcium imaging, the light source of 4 xenon lamps in FDSS6000 were radiated to selectively expose the cells to the excitation wavelength (480 nm) by a computer-controlled filter wheel. Data were obtained at intervals of 1.23 sec. The emitter fluorescence light inflowed through a 520 nm long-pass filter was obtained as an average 480/520 ratio value for each well in the 96-wells by using a CCD camera and a digital fluorescence analyzer in FDSS6000. All image data and analyses were obtained by using a FDSS6000-exclusive program from Hamamatsu Photonics.
A general note: Calcium flux is commonly read through the fluorescence of an indicator in the cells.

T1 sequence (P41594 21-1212): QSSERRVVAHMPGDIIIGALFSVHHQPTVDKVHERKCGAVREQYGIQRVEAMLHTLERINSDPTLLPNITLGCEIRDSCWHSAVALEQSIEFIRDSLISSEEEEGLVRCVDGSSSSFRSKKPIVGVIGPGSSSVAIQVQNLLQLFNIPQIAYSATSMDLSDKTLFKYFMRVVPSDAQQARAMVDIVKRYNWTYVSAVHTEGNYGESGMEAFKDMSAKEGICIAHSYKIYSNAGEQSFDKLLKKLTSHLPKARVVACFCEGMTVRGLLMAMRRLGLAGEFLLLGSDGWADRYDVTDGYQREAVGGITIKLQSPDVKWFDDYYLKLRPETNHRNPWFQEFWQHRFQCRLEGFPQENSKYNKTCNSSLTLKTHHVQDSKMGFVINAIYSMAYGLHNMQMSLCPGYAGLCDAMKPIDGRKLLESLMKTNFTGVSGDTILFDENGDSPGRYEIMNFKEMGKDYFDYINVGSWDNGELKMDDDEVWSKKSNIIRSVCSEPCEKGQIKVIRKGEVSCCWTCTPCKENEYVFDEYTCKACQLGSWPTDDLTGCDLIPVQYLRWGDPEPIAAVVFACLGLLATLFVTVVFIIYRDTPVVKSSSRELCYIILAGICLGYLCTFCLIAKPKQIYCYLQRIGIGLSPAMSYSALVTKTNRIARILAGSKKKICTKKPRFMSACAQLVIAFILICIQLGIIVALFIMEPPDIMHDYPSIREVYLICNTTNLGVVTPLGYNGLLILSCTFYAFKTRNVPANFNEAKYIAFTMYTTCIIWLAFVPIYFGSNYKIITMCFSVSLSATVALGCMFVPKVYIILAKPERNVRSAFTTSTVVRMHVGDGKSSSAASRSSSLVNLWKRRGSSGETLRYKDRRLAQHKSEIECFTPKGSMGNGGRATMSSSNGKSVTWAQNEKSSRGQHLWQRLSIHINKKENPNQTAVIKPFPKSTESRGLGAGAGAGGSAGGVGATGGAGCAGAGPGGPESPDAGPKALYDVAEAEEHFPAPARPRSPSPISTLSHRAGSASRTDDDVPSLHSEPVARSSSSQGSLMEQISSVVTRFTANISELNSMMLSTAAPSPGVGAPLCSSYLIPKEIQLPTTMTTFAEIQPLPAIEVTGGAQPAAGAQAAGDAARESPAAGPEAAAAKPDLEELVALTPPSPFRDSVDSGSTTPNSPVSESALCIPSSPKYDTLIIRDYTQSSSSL

In the case of `C(#Cc1ccc2ccccc2n1)c1ccccc1` [Example 11, 2-(Phenylethynyl)quinoline], the inhibition (commonly the change of the read-out against control, counted positive when it falls) at 1 µM (1 μM compound) was found to be 35.9%. Moreover, the inhibition at 10 µM (10 μM compound) worked out at 67.7%.

Consider `Clc1cccc2nc(C#Cc3ccccn3)ccc12` [Example 12, 5-Chloro-2-(pyridine-2-ylethynyl)quinoline], for which, under “1 μM compound”, the inhibition at 1 µM was determined as 31%. The inhibition at 10 µM (10 μM compound) came to 64.3%.

With `FC(F)(F)c1cccnc1C#Cc1ccc2ccccc2n1` [Example 13, 2-((3-(Trifluoromethyl)pyridine-2-yl)ethynyl)quinoline], the inhibition at 1 µM (1 μM compound) came to 9.49%. Besides, where the note is “10 μM compound”, the inhibition at 10 µM worked out at 16.4%.

In the case of `CC(C)(C)C(=O)Oc1cccc2nc(C#Cc3ccccc3)ccc12` [Example 15, 2-(Phenylethynyl)quinoline-5-ylpivalate], the “% Inhibition rate (mGluR5)” value amounted to 24.03% (1 μM compound) and 23.77% (10 μM compound).

In the case of `Oc1cccc2nc(C#Cc3ccccc3)ccc12` [Example 16, 2-(Phenylethynyl)quinoline-5-ol], the inhibition at 1 µM (1 μM compound) was 18%. For the setting “10 μM compound”, the inhibition at 10 µM came to 24.3%.

For `Clc1cccc2nc(C#Cc3ccccc3)ccc12` [Example 17, 5-Chloro-2-(phenylethynyl)quinoline], the inhibition at 1 µM (1 μM compound) amounted to 11.7%. Where the note is “10 μM compound”, the inhibition at 10 µM was determined as 8.02%.

As for `Brc1cccc2nc(C#Cc3ccccc3)ccc12` [Example 18, 5-Bromo-2-(phenylethynyl)quinoline], the inhibition at 1 µM (1 μM compound) stood at 21.1%. The inhibition at 10 µM (10 μM compound) is 20.7%.

Consider `C(#Cc1ccc2ccccc2n1)c1cccnc1` [Example 19, 2-(Pyridine-3-ylethynyl)quinoline], for which, for the setting “1 μM compound”, the inhibition at 1 µM amounted to 43.9%. Further, for the setting “10 μM compound”, the inhibition at 10 µM came out at 65.8%.

Take `COc1cccc2nc(C#Cc3cccnc3)ccc12` [Example 20, 5-Methoxy-2-(pyridine-3-ylethynyl)quinoline]: the inhibition at 1 µM (1 μM compound) was 67.7%. The inhibition at 10 µM (10 μM compound) was 67.7%.

Regarding `CCOc1cccc2nc(C#Cc3cccnc3)ccc12` [Example 21, 5-Ethoxy-2-(pyridine-3-ylethynyl)quinoline], for the setting “1 μM compound”, the inhibition at 1 µM turned out to be 47.2%. Moreover, where the note is “10 μM compound”, the inhibition at 10 µM was determined as 66.6%.

On to `CC(C)(C)C(=O)Oc1cccc2nc(C#Cc3cccnc3)ccc12` [Example 22, 2-(Pyridine-3-ylethynyl)quinoline-5-ylpivalate], for which the “% Inhibition rate (mGluR5)” value (1 μM compound) is recorded as 10.56% and the “% Inhibition rate (mGluR5)” value (10 μM compound) is 28.5%.

Consider `Oc1cccc2nc(C#Cc3cccnc3)ccc12` [Example 23, 2-(Pyridine-3-ylethynyl)quinoline-5-ol], for which the inhibition at 1 µM (1 μM compound) stood at 25.2%. The inhibition at 10 µM (10 μM compound) stood at 17.6%.

Regarding `Clc1cccc2nc(C#Cc3cccnc3)ccc12` [Example 24, 5-Chloro-2-(pyridine-3-ylethynyl)quinoline], under “1 μM compound”, the inhibition at 1 µM is 11.2%. The inhibition at 10 µM (10 μM compound) came to 28.4%.

Turning to `Brc1cccc2nc(C#Cc3cccnc3)ccc12` [Example 25, 5-Bromo-2-(pyridine-3-ylethynyl)quinoline], the inhibition at 1 µM (1 μM compound) stood at 22%. Besides, under “10 μM compound”, the inhibition at 10 µM amounted to 40.1%.

As for `CC(C)(C)C(=O)Oc1cccc2nc(C#Cc3ccccn3)ccc12` [Example 27, 2-(Pyridine-2-ylethynyl)quinoline-5-ylpivalate], the “% Inhibition rate (mGluR5)” value amounted to 17.12% (1 μM compound) and 62.44% (10 μM compound).

Take `Oc1cccc2nc(C#Cc3ccccn3)ccc12` [Example 28, 2-(Pyridine-2-ylethynyl)quinoline-5-ol]: the inhibition at 1 µM (1 μM compound) came to 17.4%. Besides, the inhibition at 10 µM (10 μM compound) stood at 22.1%.

As to `Brc1cccc2nc(C#Cc3ccccn3)ccc12` [Example 29, 5-Bromo-2-(pyridine-2-ylethynyl)quinoline], for the setting “1 μM compound”, the inhibition at 1 µM is 56.7%. For the same molecule, the inhibition at 10 µM (10 μM compound) stood at 77.5%.

Turning to `Fc1cccnc1C#Cc1ccc2ccccc2n1` [Example 30, 2-((3-Fluoropyridine-2-yl)ethynyl)quinoline], the inhibition at 1 µM (1 μM compound) came out at 31.3%. The inhibition at 10 µM (10 μM compound) was found to be 55.2%.

On to `Cc1cccnc1C#Cc1ccc2ccccc2n1` [Example 31, 2-((3-Methylpyridine-2-yl)ethynyl)quinoline], for which the inhibition at 1 µM (1 μM compound) was found to be 18.9%. Also, for the setting “10 μM compound”, the inhibition at 10 µM is 40.1%.

On to `FC(F)(F)c1ccnc(C#Cc2ccc3ccccc3n2)c1` [Example 32, 2-((4-(Trifluoromethyl)pyridine-2-yl)ethynyl)quinoline], for which the inhibition at 1 µM (1 μM compound) was found to be 23.3%. Besides, the inhibition at 10 µM (10 μM compound) is 58%.

As for `N#Cc1ccnc(C#Cc2ccc3ccccc3n2)c1` [Example 33, 2-(Quinoline-2-ylethynyl)isonicotinonitrile], the inhibition at 1 µM (1 μM compound) was 35.2%. For the same molecule, the inhibition at 10 µM (10 μM compound) was 76.1%.

As for `Cc1ccnc(C#Cc2ccc3ccccc3n2)c1` [Example 34, 2-((4-Methylpyridine-2-yl)ethynyl)quinoline], the inhibition at 1 µM (1 μM compound) is 21.9%. Further, the inhibition at 10 µM (10 μM compound) was 66.5%.

For the molecule `FC(F)(F)c1ccc(C#Cc2ccc3ccccc3n2)nc1` [Example 35, 2-((5-(Trifluoromethyl)pyridine-2-yl)ethynyl)quinoline], under “1 μM compound”, the inhibition at 1 µM was determined as 13%. Besides, where the note is “10 μM compound”, the inhibition at 10 µM was found to be 50.7%.

Take `Fc1ccc(C#Cc2ccc3ccccc3n2)nc1` [Example 36, 2-((5-Fluoropyridine-2-yl)ethynyl)quinoline]: for the setting “1 μM compound”, the inhibition at 1 µM came to 33.9%. Moreover, for the setting “10 μM compound”, the inhibition at 10 µM was determined as 63.3%.

As to `Cc1ccc(C#Cc2ccc3ccccc3n2)nc1` [Example 37, 2-((5-Methylpyridine-2-yl)ethynyl)quinoline], the inhibition at 1 µM (1 μM compound) came out at 29%. Moreover, the inhibition at 10 µM (10 μM compound) came out at 66.3%.

For `FC(F)(F)c1cccc(C#Cc2ccc3ccccc3n2)n1` [Example 38, 2-((6-(Trifluoromethyl)pyridine-2-yl)ethynyl)quinoline], where the note is “1 μM compound”, the inhibition at 1 µM is 15.8%. Besides, the inhibition at 10 µM (10 μM compound) stood at 28.7%.

In the case of `Fc1cccc(C#Cc2ccc3ccccc3n2)n1` [Example 40, 2-((6-Fluoropyridine-2-yl)ethynyl)quinoline], for the setting “1 μM compound”, the inhibition at 1 µM is 29.6%. Besides, the inhibition at 10 µM (10 μM compound) worked out at 46.9%.

`COc1cccc(C#Cc2ccc3ccccc3n2)n1` [Example 41, 2-((6-Methoxypyridine-2-yl)ethynyl)quinoline]: the inhibition at 1 µM (1 μM compound) is 16.6%. Moreover, the inhibition at 10 µM (10 μM compound) came to 48.6%.

Take `C(#Cc1ncccn1)c1ccc2ccccc2n1` [Example 42, 2-(Pyrimidine-2-ylethynyl)quinoline]: the inhibition at 1 µM (1 μM compound) stood at 17.1%. In addition, the inhibition at 10 µM (10 μM compound) was found to be 28.6%.

`FC(F)(F)c1ccnc(C#Cc2ccc3ccccc3n2)n1` [Example 43, 2-((4-(Trifluoromethyl)pyrimidine-2-yl)ethynyl)quinoline]: where the note is “1 μM compound”, the inhibition at 1 µM stood at 17.3%. Besides, the inhibition at 10 µM (10 μM compound) turned out to be 15.9%.

In the case of `Fc1cnc(C#Cc2ccc3ccccc3n2)nc1` [Example 44, 2-((5-Fluoropyrimidine-2-yl)ethynyl)quinoline], under “1 μM compound”, the inhibition at 1 µM is 16%. Further, the inhibition at 10 µM (10 μM compound) was determined as 15.6%.

As for `C(#Cc1ccc2ccccc2n1)c1cncnc1` [Example 45, 2-(Pyrimidine-5-ylethynyl)quinoline], under “1 μM compound”, the inhibition at 1 µM was found to be 13.6%. Moreover, the inhibition at 10 µM (10 μM compound) is 22.4%.
